Assay results published in ChEMBL document CHEMBL1129844, “Mechanism-based inactivation of l-pipecolate oxidase by a sulfur-containing substrate analog, 5-thia-l-pipecolic acid” (Bioorg Med Chem Lett, 1997).
Where “and” joins values, the source holds several entries; their conditions need not be identical. Identical values can stand only once.

T1: Peroxisomal sarcosine oxidase (Homo sapiens) (UniProt Q9P0Z9)
T1 sequence (whole entry): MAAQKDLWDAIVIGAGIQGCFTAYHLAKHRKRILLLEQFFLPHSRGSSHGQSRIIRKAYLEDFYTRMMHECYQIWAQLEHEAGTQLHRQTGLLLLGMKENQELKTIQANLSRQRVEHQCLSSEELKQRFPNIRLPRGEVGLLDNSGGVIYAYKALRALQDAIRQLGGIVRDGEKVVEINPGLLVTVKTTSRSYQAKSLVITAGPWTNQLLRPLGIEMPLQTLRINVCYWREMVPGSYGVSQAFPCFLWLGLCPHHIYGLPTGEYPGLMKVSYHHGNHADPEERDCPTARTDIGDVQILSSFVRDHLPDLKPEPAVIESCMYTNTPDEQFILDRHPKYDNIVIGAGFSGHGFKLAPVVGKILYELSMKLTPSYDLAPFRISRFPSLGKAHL

T2: Peroxisomal sarcosine oxidase (Homo sapiens, UniProt Q9P0Z9)
T2 sequence (Q9P0Z9 whole entry): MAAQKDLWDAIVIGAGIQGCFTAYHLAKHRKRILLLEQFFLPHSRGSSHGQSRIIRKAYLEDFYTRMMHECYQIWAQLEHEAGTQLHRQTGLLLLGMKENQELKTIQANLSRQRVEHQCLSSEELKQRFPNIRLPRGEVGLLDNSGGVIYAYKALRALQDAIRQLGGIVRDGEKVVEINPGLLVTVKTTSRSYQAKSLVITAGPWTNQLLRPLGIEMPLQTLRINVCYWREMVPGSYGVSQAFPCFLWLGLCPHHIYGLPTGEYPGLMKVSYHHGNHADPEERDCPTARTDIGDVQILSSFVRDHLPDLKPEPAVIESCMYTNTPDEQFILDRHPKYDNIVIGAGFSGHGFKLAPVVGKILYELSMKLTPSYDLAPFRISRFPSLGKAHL


How the values were obtained:
[1] = molecular target: T1, Peroxisomal sarcosine oxidase (Homo sapiens); assay: Kinetic parameter was evaluated for L-pipecolate oxidase in Frozen Rhesus monkey liver ith L-PA as substrate; type: tissue-based; details: Cercopithecidae, target entry is the homologue from another species
[2] = molecular target: T2, Peroxisomal sarcosine oxidase; assay: Time and concentration dependent inhibition of L-pipecolate oxidase was determined by the compound; design: species or system Cercopithecidae
[3] = Partition ratio was calculated from the ratio of kcat/kinact
[4] = molecular target: T1, Peroxisomal sarcosine oxidase (Homo sapiens); assay: Kinetic parameter was evaluated for L-pipecolate oxidase; details: Cercopithecidae
[5] = molecular target: T1, Peroxisomal sarcosine oxidase (Homo sapiens); assay: Kinetic parameter was evaluated for L-pipecolate oxidase was expressed as K observed; details: Cercopithecidae
[6] = molecular target: T1, Peroxisomal sarcosine oxidase (Homo sapiens); assay: (§1) Kinetic parameter was evaluated for L-pipecolate oxidase using the peroxidase-coupled assay; details: Cercopithecidae
[7] = substrate: O=C(O)[C@@H]1CCSCN1; assay: as §1; details: Cercopithecidae

Molecule | k cat [1] [min⁻¹] | Ki [2] [mM] | Ratio [3] | K inact [4] [min⁻¹] | k obs [5] | k cat [6] [min⁻¹] | Km [7] [µM]
O=C(O)[C@@H]1CCSCN1 | 7.8 | 36 | 85 | 0.06 | 4.01e-05 s⁻¹ and 4.26e-05 s⁻¹ | 5.1 | –
Peroxisomal sarcosine oxidase (Homo sapiens), Q9P0Z9 (protein) MAAQKDLWDAIVIGAGIQGCFTAYHLAKHRKRILLLEQFFLPHSRGSSHGQSRIIRKAYLEDFYTRMMHECYQIWAQLEHEAGTQLHRQTGLLLLGMKENQELKTIQANLSRQRVEHQCLSSEELKQRFPNIRLPRGEVGLLDNSGGVIYAYKALRALQDAIRQLGGIVRDGEKVVEINPGLLVTVKTTSRSYQAKSLVITAGPWTNQLLRPLGIEMPLQTLRINVCYWREMVPGSYGVSQAFPCFLWLGLCPHHIYGLPTGEYPGLMKVSYHHGNHADPEERDCPTARTDIGDVQILSSFVRDHLPDLKPEPAVIESCMYTNTPDEQFILDRHPKYDNIVIGAGFSGHGFKLAPVVGKILYELSMKLTPSYDLAPFRISRFPSLGKAHL | – | – | – | – | – | – | 940
